Assay results from ChEMBL document CHEMBL1143757, “Synthesis and inhibitory activity of new benzimidazole derivatives against Burkitt's lymphoma promotion” (2007).

Key:
Raji = experiment: Cytotoxicity against Raji cells assessed as cell viability at 32 nmol relative to control; format: functional, Homo sapiens
Human gammaherpesvirus 4 [1] = experiment: Inhibition of TPA-induced Epstein-Barr virus early antigen activation in Raji cells at 16 nmol relative to control; values are per cent of control
Human gammaherpesvirus 4 [2] = experiment: Inhibition of TPA-induced Epstein-Barr virus early antigen activation in Raji cells at 0.32 nmol relative to control; values are per cent of control
Human gammaherpesvirus 4 [3] = experiment: Inhibition of TPA-induced Epstein-Barr virus early antigen activation in Raji cells at 3.2 nmol relative to control; values are per cent of control
Human gammaherpesvirus 4 [4] = experiment: Inhibition of TPA-induced Epstein-Barr virus early antigen activation in Raji cells at 32 nmol relative to control; values are per cent of control

Row | Structure (SMILES) | Activity (Raji) [%] | level, % of control (Human gammaherpesvirus 4 [1]) [%] | level, % of control (Human gammaherpesvirus 4 [2]) [%] | level, % of control (Human gammaherpesvirus 4 [3]) [%] | level, % of control (Human gammaherpesvirus 4 [4]) [%]
1 | Cc1nc2cc(N3C(=O)CSC3c3cccc4ccccc34)ccc2[nH]1 (stereo not given) | 60 | 61 | 100 | 85.1 | 17.1
2 | Cc1nc2cc([N+](=O)[O-])ccc2n1Cc1ccccc1 | 60 | 62.4 | 100 | 87.4 | 18.3
3 | Cc1nc2cc(N3C(=O)CSC3c3ccc4c(c3)OCO4)ccc2[nH]1 (stereo not given) | 60 | 65 | 100 | 88.4 | 21.6
4 | Cc1nc2cc(N3C(=O)CSC3c3cccs3)ccc2[nH]1 (stereo not given) | 60 | 66.5 | 100 | 88.9 | 22.1
5 | Cc1nc2cc(/N=C\c3ccc(C)o3)ccc2[nH]1 | 60 | 62 | 100 | 86.2 | 18
6 | Cc1nc2cc(/N=C\c3ccc4c(c3)OCO4)ccc2[nH]1 | 60 | 60.2 | 100 | 85.4 | 15.1
7 | CNC(=S)Nc1ccc2c(c1)nc(C)n2Cc1ccccc1 | 60 | 58.1 | 100 | 80 | 13.2
8 | CCNC(=S)Nc1ccc2c(c1)nc(C)n2Cc1ccccc1 | 60 | 59.6 | 100 | 81.2 | 14
9 | Cc1nc2cc(NC(=S)NC(=O)c3ccccc3)ccc2n1Cc1ccccc1 | 60 | 60.6 | 100 | 82 | 17.8
10 | COc1ccc(NC(=S)Nc2ccc3c(c2)nc(C)n3Cc2ccccc2)cc1 | 60 | 53.1 | 100 | 78.3 | 13.5
11 | CCN1C(=O)CS/C1=N/c1ccc2c(c1)nc(C)n2Cc1ccccc1 | 60 | 54.2 | 100 | 81.1 | 18.3
12 | Cc1nc2cc(/N=C\c3c[nH]c4ccccc34)ccc2[nH]1 | 60 | 62.1 | 100 | 86.1 | 18.4
13 | Cc1nc2cc(/N=C\c3cccc4ccccc34)ccc2[nH]1 | 60 | 65.8 | 100 | 89.6 | 20.6
14 | Cc1nc2cc(/N=C3/SCC(=O)N3C(=O)c3ccccc3)ccc2n1Cc1ccccc1 | 60 | 52.5 | 100 | 82.5 | 12.3
15 | COc1ccc(N2C(=O)CS/C2=N/c2ccc3c(c2)nc(C)n3Cc2ccccc2)cc1 | 60 | 53 | 100 | 78 | 13.2
16 | Cc1nc2ccccc2[nH]1 | 60 | 63.6 | 100 | 88.3 | 19.6
17 | Cc1nc2cc([N+](=O)[O-])ccc2[nH]1 | 60 | 62.5 | 100 | 88 | 18.4
18 | Cc1ccc(C2SCC(=O)N2c2ccc3[nH]c(C)nc3c2)cc1 (stereo not given) | 60 | 66.1 | 100 | 88.9 | 23.1
19 | Cc1nc2cc(/N=C3/SCC(=O)N3C)ccc2n1Cc1ccccc1 | 60 | 61.2 | 100 | 83.4 | 20.7
20 | Cc1nc2cc(N3C(=O)CSC3c3ccc(C)o3)ccc2[nH]1 (stereo not given) | 60 | 65.1 | 100 | 87.7 | 20.9
21 | Cc1nc2cc(N3C(=O)CSC3c3c[nH]c4ccccc34)ccc2[nH]1 (stereo not given) | 60 | 65.9 | 100 | 87.1 | 21.8
22 | Cc1nc2cc(/N=C3/SCC(=O)N3c3ccccc3)ccc2n1Cc1ccccc1 | 60 | 61 | 100 | 82.5 | 19.4
23 | Cc1nc2cc(NC(=S)Nc3ccccc3)ccc2n1Cc1ccccc1 | 60 | 60.2 | 100 | 83.1 | 15.3
24 | Cc1ccc(/C=N\c2ccc3[nH]c(C)nc3c2)cc1 | 60 | 64.5 | 100 | 89.1 | 19.3
25 | Cc1nc2cc(/N=C\c3cccs3)ccc2[nH]1 | 60 | 65.5 | 100 | 89.1 | 22
26 | Cc1nc2cc(N)ccc2[nH]1.Cl | 60 | 64.3 | 100 | 88.9 | 20.3
27 | Cc1nc2cc(N)ccc2n1Cc1ccccc1.Cl | 60 | 62.2 | 100 | 86.3 | 18.5
